Tests used:
LNCaP = experiment: pAkt pathway inhibition, LNCaP; assay type: cell-based; settings: Homo sapiens, Prostate
KM-12 = experiment: pAkt pathway inhibition, KM-12; assay type: cell-based; settings: Homo sapiens, KM12; KM-12, Colon
U87MG = experiment: pAkt pathway inhibition, U87MG; assay type: cell-based; settings: Homo sapiens, U-87 MG, Glioma
LN229 = experiment: pAkt pathway inhibition, LN229; assay type: cell-based; settings: Homo sapiens, LN-229; LN229, Glioma
Mouse PK = assay type: in vivo; settings: plasma, PO 20 mg/kg
Text: The pharmacokinetics of Compound A in mouse and dogs were also examined. […] The results of Tmax (time of maximum observed concentration), Cmax (maximum concentration in plasma measured), AUC (area under the curve for plasma concentration versus time), Cl (total body clearance), and Vz (volume of distribution) were summarized in Table 4. As used herein, the mark ‘-’ represents data not relevant. AUC is shown as the unit of ng*h/mL (ng=nanograms, h=hour, mL=milliliter); ng are multiplied by h, and the value is divided by the volume in mL.

OVCAR-3 = experiment: Viability (AlamarBlue), OVCAR-3; assay type: cell-based; settings: Homo sapiens; OVCAR-3, Ovarian
Protocol: For primary T-ALL samples, cell viability was determined using the BD Cell Viability kit (BD Biosciences) and fluorescent counting beads as previously described in Armstrong, F. et al., NOTCH is a key regulator of human T-cell acute leukemia initiating cell activity, Blood 113, 1730-1740 (2009). Cells were plated with MS5-DL1 stroma cells. After 72 hours following treatment, cells were harvested and stained with an APC-conjugated anti-human CD45 according to the manufacturer's instructions. For solid tumor cell lines, cellular viability was determined using the AlamarBlue kit (Invitrogen). About 10,000 cells in 100 μL of media containing 10% FBS were aliquoted into individual wells of a 96-well plate and treated with vehicle (DMSO) or compound in triplicate for 24 hours. Ten μL of AlamarBlue reagent was added to each well and incubated for 4 hours at 37° C. with 5% CO2. Fluorescence was measured with an excitation wavelength at 530 to 560 nm and emission wavelength at 590 nm using Spectramax M5 plate reader (Molecular Devices, Sunnyvale, Calif.).

PTEN null T-ALL = experiment: Diseased Lck/PTEN^fl/fl mice with PTEN null T-ALL; assay type: in vivo; settings: 30 mg/kg BID, Day 4 and 7, compared to control mice
T Cell Malignancies = experiment: Cellular viability, T cell malignancies; assay type: cell-based; settings: N = 7
Text: Cellular viability and pAkt activity were used to determine effects of Compounds A, C, and D in solid tumor, B-cell malignancies, and T-cell malignancies.

## CC(Nc1ncnc2[nH]cnc12)c1nc2cccc(Cl)c2c(=O)n1-c1ccccc1 (stereo not shown) [Compound A, 2-(1-(9H-purin-6-ylamino)ethyl)-5-chloro-3-phenylquinazolin-4(3H)-one]
LNCaP
  EC50: 34 nM
KM-12
  EC50: 897 nM
U87MG
  EC50: 17 nM
LN229
  EC50: 10 nM
Mouse PK
  AUC: 1.5 µg·h/mL
  Cmax: 1.28 µg/mL
  Tmax: 15 min
OVCAR-3
  GI50: 0.85 µM
PTEN null T-ALL
  luminescent signal: significantly lower
T Cell Malignancies
  EC50: 2.4 µM

Source: patent US20130143902A1, “COMPOSITIONS AND METHODS OF TREATING A PROLIFERATIVE DISEASE WITH A QUINAZOLINONE DERIVATIVE” (GILEAD CALISTOGA LLC, priority 2011, published 2013)
